Experimental data reported in PubChem BioAssay (NCI).
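How tested: cells in 96-well plates exposed to compound for 48 hours at five concentrations. TGI marks complete inhibition of growth.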

What was measured:
Experiment in all cases: NCI anticancer screen, dose series, 48 h
[1] = system: NCI/ADR-RES ovarian
[2] = system: HCC-2998 colon
[3] = system: SK-MEL-2 melanoma
[4] = system: KM12 colon
[5] = system: UACC-62 melanoma
[6] = system: OVCAR-4 ovarian
[7] = system: SF-539 CNS
[8] = system: NCI-H460 lung
[9] = system: 786-0 renal
[10] = system: NCI-H522 lung
[11] = system: HS 578T breast
[12] = system: NCI-H226 lung
[13] = system: SK-MEL-28 melanoma
[14] = system: HOP-92 NSCLC
[15] = system: K-562 leukemia
[16] = system: M14 melanoma
[17] = system: NCI-H23 lung
[18] = system: SF-268 CNS
[19] = system: RXF 393 renal
[20] = system: HCT-116 colon
[21] = system: CAKI-1 renal
[22] = system: SR leukemia
[23] = system: HCT-15 colon
[24] = system: A549 NSCLC
[25] = system: UACC-257 melanoma
[26] = system: MCF7 breast
[27] = system: SK-OV-3 ovarian
[28] = system: OVCAR-3 ovarian
[29] = system: HL-60(TB) leukemia
[30] = system: DU-145 prostate
[31] = system: CCRF-CEM leukemia
[32] = system: SN12C renal
[33] = system: MDA-MB-435
[34] = system: A498 renal
[35] = system: T-47D breast
[36] = system: SNB-75 CNS
[37] = system: HOP-62 NSCLC
[38] = system: SNB-19 CNS
[39] = system: MOLT-4 leukemia
[40] = system: COLO 205 colon
[41] = system: U251 CNS
[42] = system: SW-620 colon
[43] = system: BT-549 breast
[44] = system: RPMI-8226 leukemia
[45] = system: OVCAR-5 ovarian
[46] = system: IGROV1 ovarian
[47] = system: SK-MEL-5 melanoma
[48] = system: SF-295 CNS
[49] = system: PC-3 prostate
[50] = system: HT29 colon
[51] = system: UO-31 renal
[52] = system: MDA-N
[53] = system: MDA-MB-231 breast
[54] = system: OVCAR-8 ovarian
[55] = system: TK-10 renal
[56] = system: EKVX NSCLC
[57] = system: LOX IMVI melanoma
[58] = system: ACHN renal
[59] = system: MALME-3M melanoma

CN(N=O)C(=O)NNC(=O)N(C)N=O
TGI [1]: > 100 µM | TGI [2]: > 100 µM | TGI [3]: > 100 µM | TGI [4]: > 100 µM | TGI [5]: > 100 µM | TGI [6]: > 100 µM | TGI [7]: > 100 µM | TGI [8]: > 100 µM | TGI [9]: 95.1 µM | TGI [10]: > 100 µM | TGI [11]: > 100 µM | TGI [12]: > 100 µM | TGI [13]: > 100 µM | TGI [14]: > 100 µM | TGI [15]: > 100 µM | TGI [16]: > 100 µM | TGI [17]: > 100 µM | TGI [18]: > 100 µM | TGI [19]: 85.7 µM | TGI [20]: > 100 µM | TGI [21]: > 100 µM | TGI [22]: > 100 µM | TGI [23]: > 100 µM | TGI [24]: > 100 µM | TGI [25]: > 100 µM | TGI [26]: > 100 µM | TGI [27]: > 100 µM | TGI [28]: > 100 µM | TGI [29]: > 100 µM | TGI [30]: > 100 µM | TGI [31]: > 100 µM | TGI [32]: > 100 µM | TGI [33]: > 100 µM | TGI [34]: > 100 µM | TGI [35]: > 100 µM | TGI [36]: > 100 µM | TGI [37]: > 100 µM | TGI [38]: > 100 µM | TGI [39]: > 100 µM | TGI [40]: > 100 µM | TGI [41]: > 100 µM | TGI [42]: > 100 µM | TGI [43]: > 100 µM | TGI [44]: > 100 µM | TGI [45]: > 100 µM | TGI [46]: > 100 µM | TGI [47]: > 100 µM | TGI [48]: > 100 µM | TGI [49]: > 100 µM | TGI [50]: > 100 µM | TGI [51]: > 100 µM | TGI [52]: > 100 µM | TGI [53]: > 100 µM | TGI [54]: > 100 µM | TGI [55]: > 100 µM | TGI [56]: > 100 µM | TGI [57]: > 100 µM | TGI [58]: > 100 µM

Cc1cccc(-n2c(C)nc3ccc(NC(=S)Nc4ccccc4)cc3c2=O)c1
TGI [59]: > 100 µM | TGI [1]: > 100 µM | TGI [2]: 78.1 µM | TGI [3]: > 100 µM | TGI [4]: > 100 µM | TGI [5]: > 100 µM | TGI [6]: > 100 µM | TGI [8]: > 100 µM | TGI [9]: > 100 µM | TGI [10]: > 100 µM | TGI [11]: > 100 µM | TGI [12]: > 100 µM | TGI [13]: > 100 µM | TGI [15]: > 100 µM | TGI [17]: > 100 µM | TGI [18]: > 100 µM | TGI [19]: > 100 µM | TGI [20]: > 100 µM | TGI [21]: > 100 µM | TGI [22]: > 100 µM | TGI [23]: > 100 µM | TGI [25]: > 100 µM | TGI [26]: > 100 µM | TGI [28]: > 100 µM | TGI [29]: > 100 µM | TGI [30]: > 100 µM | TGI [32]: > 100 µM | TGI [33]: > 100 µM | TGI [34]: > 100 µM | TGI [35]: > 100 µM | TGI [36]: > 100 µM | TGI [37]: > 100 µM | TGI [38]: > 100 µM | TGI [39]: 71.9 µM | TGI [40]: > 100 µM | TGI [41]: > 100 µM | TGI [42]: > 100 µM | TGI [43]: > 100 µM | TGI [44]: > 100 µM | TGI [45]: > 100 µM | TGI [46]: > 100 µM | TGI [47]: 57.1 µM | TGI [48]: > 100 µM | TGI [49]: > 100 µM | TGI [50]: > 100 µM | TGI [51]: > 100 µM | TGI [52]: > 100 µM | TGI [53]: > 100 µM | TGI [54]: > 100 µM | TGI [55]: > 100 µM | TGI [56]: > 100 µM | TGI [57]: > 100 µM | TGI [58]: > 100 µM

CN(C)C(=O)Oc1ccc[n+](C)c1
TGI [59]: > 100 µM | TGI [1]: > 100 µM | TGI [2]: > 100 µM | TGI [3]: > 100 µM | TGI [4]: > 100 µM | TGI [5]: > 100 µM | TGI [6]: > 100 µM | TGI [8]: > 100 µM | TGI [9]: > 100 µM | TGI [10]: > 100 µM | TGI [11]: > 100 µM | TGI [12]: > 100 µM | TGI [13]: > 100 µM | TGI [15]: > 100 µM | TGI [17]: > 100 µM | TGI [18]: > 100 µM | TGI [19]: > 100 µM | TGI [20]: > 100 µM | TGI [21]: > 100 µM | TGI [22]: > 100 µM | TGI [23]: > 100 µM | TGI [25]: > 100 µM | TGI [26]: > 100 µM | TGI [28]: > 100 µM | TGI [29]: > 100 µM | TGI [30]: > 100 µM | TGI [32]: > 100 µM | TGI [33]: > 100 µM | TGI [34]: > 100 µM | TGI [35]: > 100 µM | TGI [36]: > 100 µM | TGI [37]: > 100 µM | TGI [38]: > 100 µM | TGI [39]: > 100 µM | TGI [40]: > 100 µM | TGI [41]: > 100 µM | TGI [42]: > 100 µM | TGI [43]: > 100 µM | TGI [44]: > 100 µM | TGI [45]: > 100 µM | TGI [46]: > 100 µM | TGI [47]: > 100 µM | TGI [48]: > 100 µM | TGI [49]: > 100 µM | TGI [50]: > 100 µM | TGI [51]: > 100 µM | TGI [52]: > 100 µM | TGI [53]: > 100 µM | TGI [54]: > 100 µM | TGI [55]: > 100 µM | TGI [56]: > 100 µM | TGI [57]: > 100 µM | TGI [58]: > 100 µM
